# Values quoted from earlier work in patent US20260174730A1, “A COMPOSITION FOR TREATING PARKINSON'S DISEASE” (COUNCIL OF SCIENTIFIC & INDUSTRIAL RESEARCH, priority 2023, published 2026).
# Tested on: oxygen-glucose deprivation in vitro
compound,measurement,value
C/C(=C\COc1ccc2ccc(=O)oc2c1)CC[C@@H]1C(C)(C)[C@H]2CC[C@]1(C)O2 [farnesiferol C],neuroprotective activity,moderate neuroprotective activity
